“Also recorded” adds a separate entry of the source. Read-outs that look alike come from different tables or passages of the source. Blank lines part the entries; values can stand above or below the molecule they belong to.
Assays:
MCF-7 cells [1] = experiment: Cell cycle analysis by flow cytometry; assay type: cell-based, human; settings: MCF-7, 0.3 and 0.6 µM
Description: The observed cell cycle disturbance is consistent with a blockade at the G1–S transition, which triggers apoptotic cell death.
Cell cycle analysis by flow cytometry was applied to characterize the effects of 3i on the phase distribution of the treated cells. MCF-7 cells were seeded onto 12-well plates (200,000 cells/well) and incubated overnight. They were then treated with 0.3 or 0.6 μM for 24 or 48 h. After the treatment, the propidium iodide-labeled cells were analyzed using a CytoFLEX instrument (Beckman Coulter, Brea, CA, USA), and at least 20,000 cells per sample were evaluated, as described in a recent publication. The obtained data were processed using ModFit LT 3.3.11 software (Verity Software House, Topsham, ME, USA) as referenced by Vermes et al..

[2] = test system: panel of human malignant cell lines of gynecological origin; experiment: MTT antiproliferative assay, whole panel; assay type: cell-based; settings: for inhibition at 10 µM / IC50: Homo sapiens; for inhibition at 10 µM: across the tested cell lines, read-out: inhibition rates; for IC50: HeLa, SiHa, MCF-7, MDA-MB-231, A2780, read-out: IC50 values (range over cancer cell lines)
Excerpt: (§1) As the NCI has not been accepting compound submissions from investigators outside the USA for NCI-60 testing since 2024, chrysin derivatives 3i, 3j, and 5 were instead evaluated in additional viability assays against a simplified panel of human cancer cell lines representing breast (MCF-7 and MDA-MB-231), cervical (HeLa and SiHa), and ovarian cancers. A nonmalignant fibroblast cell line (NIH/3T3) was also used to obtain preliminary results describing the cancer selectivity of the test substances. […] The two effective agents were further investigated using a broad concentration range (0.1–30 µM), and their IC50 values were calculated (Table 3).
Besides the cell growth-inhibiting potency, cancer selectivity is a crucial factor determining the perspective of a drug candidate. This property is expressed as a selectivity ratio, i.e., the ratio of the compound’s IC50 obtained on the non-cancerous fibroblasts and those from the cancer cell lines. A higher ratio indicates more promising cancer selectivity (Table 3). […] Based on these efficacy and selectivity data, further cell-based studies were performed with 3i against MCF-7 breast cancer cells.
(§2) The cell growth-inhibiting properties of compounds 3i, 3j, and 5 were determined by means of the MTT assay against a panel of human malignant cell lines of gynecological origin [8, 27, 40]. The panel included breast (MCF-7 and MDA-MB-231; Cellosaurus accessions: CVCL_0031 and CVCL_0062, respectively), cervical (HeLa and SiHa; CVCL_0030 and CVCL_0032, respectively), and ovarian (A2780; CVCL_0134) cell lines. Nonmalignant murine NIH/3T3 (CVCL_0594) fibroblasts were also used to obtain results characterizing the cancer selectivity of the tested substances. The whole assay was performed as described earlier. […] All applied cell lines were obtained from the European Collection of Cell Cultures (Salisbury, UK), except for SiHa (American Tissue Culture Collection, Manassas, VA, USA). Cisplatin, a clinically available anticancer drug, was included as a reference compound. All experiments were conducted twice, with at least five replicates per condition.

NIH/3T3 (fibroblast) [3] = experiment: MTT antiproliferative assay; assay type: cell-based, murine; settings: Mus musculus; for inhibition at 10 µM: NIH3T3, 10 μM; for IC50: NIH3T3, read-out: IC50 Value (μM) ± SEM
Excerpt: as §1, §2

HeLa [4] = experiment: MTT antiproliferative assay; assay type: cell-based, human; settings: for IC50 / inhibition at 10 µM / inhibition at 30 µM: Homo sapiens, HeLa; for IC50: read-out: IC50 Value (μM) ± SEM; for Selectivity Ratio: IC50 on NIH/3T3 fibroblasts / IC50 on HeLa
Excerpt: as §1, §2

A2780 [5] = experiment: MTT antiproliferative assay; assay type: cell-based, human; settings: for IC50 / inhibition at 10 µM / inhibition at 30 µM: Homo sapiens; for IC50: read-out: IC50 Value (μM) ± SEM; for inhibition at 10 µM: A2780, 10 μM; for inhibition at 30 µM: A2780, 30 μM; for Selectivity Ratio: IC50 on NIH/3T3 fibroblasts / IC50 on A2780
Excerpt: as §1, §2

MDA-MB-231 [6] = experiment: MTT antiproliferative assay; assay type: cell-based, human; settings: for IC50 / inhibition at 10 µM / inhibition at 30 µM: Homo sapiens; for IC50: read-out: IC50 Value (μM) ± SEM; for inhibition at 10 µM: MDA-MB-231, 10 μM; for inhibition at 30 µM: MDA-MB-231, 30 μM; for Selectivity Ratio: IC50 on NIH/3T3 fibroblasts / IC50 on MDA-MB-231
Excerpt: as §1, §2

MCF-7 [7] = experiment: MTT antiproliferative assay; assay type: cell-based, human; settings: for inhibition at 10 µM / inhibition at 30 µM / IC50: Homo sapiens, MCF7; for inhibition at 10 µM: MCF-7, 10 μM; for inhibition at 30 µM: MCF-7, 30 μM; for IC50: MCF-7, read-out: IC50 Value (μM) ± SEM; for Selectivity Ratio: IC50 on NIH/3T3 fibroblasts / IC50 on MCF-7
Excerpt: as §1, §2

SiHa [8] = experiment: MTT antiproliferative assay; assay type: cell-based, human; settings: for IC50 / inhibition at 10 µM / inhibition at 30 µM: Homo sapiens, SiHa; for IC50: read-out: IC50 Value (μM) ± SEM; for Selectivity Ratio: IC50 on NIH/3T3 fibroblasts / IC50 on SiHa
Excerpt: as §1, §2

MCF-7 cells [9] = experiment: Wound-healing assay (migration); assay type: cell-based, human
Description: The effect of the selected compound on the migration of MCF-7 cells was investigated by means of the wound-healing assay.
The effect of substance 3i on the migration of the treated cancer cells was determined using a wound-healing assay, as presented earlier. Briefly, MCF-7 cells were trypsinized and plated into wound assay chambers (ibidi GmbH, Martinsried, Germany) at a density of 40,000 cells/insert, and the plate was incubated under standard conditions to allow proper attachment. Then, the inserts were carefully removed, and the cells were subsequently treated with 3i in fresh medium containing 2% FBS. The cell migration was recorded using a phase-contrast inverted microscope (Nikon Instruments Europe, Amstelveen, The Netherlands) fitted with a CCD camera (QImaging MicroPublisher Color RTV5.0 Teledyne Photometrics, Tucson, AZ, USA). The cell-free areas in treated samples and controls were determined using ImageJ software 1.54d (National Institutes of Health, Bethesda, MD, USA). The assays were performed in triplicates and all the statistical analyses were carried out by means of GraphPad Prism software.

A2780 [10] = test system: A2780; design: method as in PMID 40332477; settings: published earlier ref 8, read-out: IC50 Value (μM) ± SEM; cited from earlier work
MCF-7 [11] = test system: MCF-7; design: method as in PMID 40332477; settings: published earlier ref 8, read-out: IC50 Value (μM) ± SEM; cited from earlier work
SiHa [12] = test system: SiHa; design: method as in PMID 40332477; settings: published earlier ref 8, read-out: IC50 Value (μM) ± SEM; cited from earlier work
NIH/3T3 (fibroblast) [13] = test system: NIH/3T3 (fibroblast); design: method as in PMID 40332477; settings: published earlier ref 8, read-out: IC50 Value (μM) ± SEM; cited from earlier work
HeLa [14] = test system: HeLa; design: method as in PMID 40332477; settings: published earlier ref 8, read-out: IC50 Value (μM) ± SEM; cited from earlier work
MDA-MB-231 [15] = test system: MDA-MB-231; design: method as in PMID 40332477; settings: published earlier ref 8, read-out: IC50 Value (μM) ± SEM; cited from earlier work
[16] = read-out: Growth Inhibition (%) ± SEM
[17] = NIH3T3, 30 μM, read-out: Growth Inhibition (%) ± SEM
[18] = read-out: Growth Inhibition (%) ± SEM (converted)
[19] = heading: Growth Inhibition ± SEM
[20] = A2780, heading: Growth Inhibition ± SEM
[21] = MDA-MB-231, heading: Growth Inhibition ± SEM

IC50 (HeLa [4]): 1.08 ± 0.02 µM | IC50 (A2780 [5]; A2780): 0.66 ± 0.03 µM | IC50 (MDA-MB-231 [6]; MDA-MB-231): 0.54 ± 0.02 µM | IC50 (MCF-7 [7]): 0.26 ± 0.02 µM
SMILES: COc1ccccc1[P+](CCCCOc1cc(O)c2c(=O)cc(-c3ccccc3)oc2c1)(c1ccccc1)c1ccccc1 [3i]
cell cycle distribution (MCF-7 cells [1]; 24 h): significantly increased the proportion of the G0/G1 cell population | cell cycle distribution (MCF-7 cells [1]; 48 h): statistically significant accumulation of the hypodiploid (SubG1) cell population | inhibition at 10 µM [2]: > 80% | IC50 [2]: 260 to 1150 nM | inhibition at 10 µM (NIH/3T3 (fibroblast) [3]; [16]): 97.73 ± 0.53% | inhibition at 30 µM (NIH/3T3 (fibroblast) [3]; [17]): 98.5% | IC50 (NIH/3T3 (fibroblast) [3]): 1.66 ± 0.15 µM | inhibition at 10 µM (HeLa [4]; [16]): 96.5 ± 2.76% | inhibition at 30 µM (HeLa [4]; [18]): 98.9% | Selectivity Ratio (HeLa [4]): 1.54 | inhibition at 10 µM (A2780 [5]; [16]): 96.85 ± 0.37% | inhibition at 30 µM (A2780 [5]; [18]): 98.3% | Selectivity Ratio (A2780 [5]): 2.52 | inhibition at 10 µM (MDA-MB-231 [6]; [16]): 88.6 ± 3.72% | inhibition at 30 µM (MDA-MB-231 [6]; [18]): 87.4% | Selectivity Ratio (MDA-MB-231 [6]): 3.07 | inhibition at 10 µM (MCF-7 [7]; [16]): 95.4 ± 1.54% | inhibition at 30 µM (MCF-7 [7]; [16]): 95.8 ± 1.46% | Selectivity Ratio (MCF-7 [7]): 6.38 | IC50 (SiHa [8]): 1.15 ± 0.03 µM | inhibition at 10 µM (SiHa [8]; [16]): 83.2 ± 2.13% | inhibition at 30 µM (SiHa [8]; [18]): 104% | Selectivity Ratio (SiHa [8]): 1.44 | inhibition of migration (MCF-7 cells [9]; MCF-7, 24 h): significant inhibition in the migration capacity at a concentration of 0.3 μM only | inhibition of migration (MCF-7 cells [9]; MCF-7, 48 h): significant even at subantiproliferative concentration (0.1 μM)

IC50 (HeLa [4]): 2.93 ± 0.02 µM | IC50 (A2780 [5]; A2780): 1.37 ± 0.04 µM | IC50 (MDA-MB-231 [6]; MDA-MB-231): 1.24 ± 0.02 µM | IC50 (MCF-7 [7]): 0.88 ± 0.01 µM
SMILES: CC(C)(C)[P+](CCCCOc1cc(O)c2c(=O)cc(-c3ccccc3)oc2c1)(c1ccccc1)c1ccccc1 [3j]
inhibition at 10 µM [2]: > 80% | IC50 [2]: 880 to 2930 nM | inhibition at 10 µM (NIH/3T3 (fibroblast) [3]; [16]): 98.38 ± 0.53% | inhibition at 30 µM (NIH/3T3 (fibroblast) [3]; [17]): 99% | IC50 (NIH/3T3 (fibroblast) [3]): 1.96 ± 0.01 µM | inhibition at 10 µM (HeLa [4]; [16]): 96.64 ± 0.26% | inhibition at 30 µM (HeLa [4]; [18]): 97.5% | Selectivity Ratio (HeLa [4]): 0.67 | inhibition at 10 µM (A2780 [5]; [16]): 98.77 ± 0.19% | inhibition at 30 µM (A2780 [5]; [18]): 98.96 ± 0.381% | Selectivity Ratio (A2780 [5]): 1.43 | inhibition at 10 µM (MDA-MB-231 [6]; [16]): 98 ± 1.03% | inhibition at 30 µM (MDA-MB-231 [6]; [18]): 98.1 ± 0.13% | Selectivity Ratio (MDA-MB-231 [6]): 1.58 | inhibition at 10 µM (MCF-7 [7]; [16]): 98.65 ± 0.29% | inhibition at 30 µM (MCF-7 [7]; [16]): 98.68 ± 0.32% | Selectivity Ratio (MCF-7 [7]): 2.23 | IC50 (SiHa [8]): 1.47 ± 0.01 µM | inhibition at 10 µM (SiHa [8]; [16]): 97.91 ± 0.06% | inhibition at 30 µM (SiHa [8]; [18]): 97.81 ± 0.46% | Selectivity Ratio (SiHa [8]): 1.33

SMILES: N.N.[Cl][Pt][Cl] [Cisplatin]
IC50 (A2780 [10]): 1.4 ± 0.11 µM | IC50 (MCF-7 [11]): 2.6 ± 0.17 µM | IC50 (SiHa [12]): 15.5 ± 0.93 µM | IC50 (NIH/3T3 (fibroblast) [13]): 2.7 ± 0.3 µM | IC50 (HeLa [14]): 13.6 ± 0.44 µM | IC50 (MDA-MB-231 [15]): 19.13 ± 0.12 µM | Selectivity Ratio (HeLa [4]): 0.20 | Selectivity Ratio (A2780 [5]): 1.93 | Selectivity Ratio (MDA-MB-231 [6]): 0.14 | Selectivity Ratio (MCF-7 [7]): 1.04 | Selectivity Ratio (SiHa [8]): 0.17

SMILES: O=C(CC(c1ccccc1)(c1ccccc1)c1ccccc1)Oc1cc(O)c2c(=O)cc(-c3ccccc3)oc2c1 [compound 5]
cell growth-inhibiting effect (in words) ([2]; 10 and 30 μM): ineffective; also recorded: no cytotoxicity | inhibition at 10 µM (NIH/3T3 (fibroblast) [3]; [16]): > 10% | inhibition at 30 µM (NIH/3T3 (fibroblast) [3]; NIH3T3, heading: Growth Inhibition ± SEM, 30 μM): < 10% | inhibition at 10 µM (HeLa [4]; [19]): < 10% | inhibition at 30 µM (HeLa [4]; [19]): < 10% | inhibition at 10 µM (A2780 [5]; [20]): < 10% | inhibition at 30 µM (A2780 [5]; [20]): < 10% | inhibition at 10 µM (MDA-MB-231 [6]; [21]): < 10% | inhibition at 30 µM (MDA-MB-231 [6]; [21]): < 10% | inhibition at 10 µM (MCF-7 [7]; [19]): < 10% | inhibition at 30 µM (MCF-7 [7]; [19]): < 10% | inhibition at 10 µM (SiHa [8]; [19]): < 10% | inhibition at 30 µM (SiHa [8]; [19]): < 10%

— paper PMC12652692, “Synthesis and In Vitro Anticancer Evaluation of Novel Phosphonium Derivatives of Chrysin” (International Journal of Molecular Sciences, 2025)
